Data set [1] has as its system Hepatotoxicity. Kind of data set: Literature-mined compound from Fourches et al multi-species drug-induced liver injury (DILI) dataset, effect in humans. Conditions: human.
For data set [2], the system named is Hepatotoxicity. Nature of the data set: Literature-mined compound from Fourches et al multi-species drug-induced liver injury (DILI) dataset, effect in non-rodents.
Data set [3] has as its system Hepatotoxicity. Nature of the data set: Literature-mined compound from Fourches et al multi-species drug-induced liver injury (DILI) dataset, effect in rodents. Conditions: rodentia.

SMILES strings stand for the structures.

Regarding `CN[C@H](CC(C)C)C(=O)N[C@H]1C(=O)N[C@@H](CC(N)=O)C(=O)N[C@H]2C(=O)N[C@H]3C(=O)N[C@H](C(=O)N[C@H](C(=O)O)c4cc(O)cc(O)c4-c4cc3ccc4O)[C@H](O)c3ccc(c(Cl)c3)Oc3cc2cc(c3O[C@@H]2O[C@H](CO)[C@@H](O)[C@H](O)[C@H]2O[C@H]2C[C@](C)(N)[C@H](O)[C@H](C)O2)Oc2ccc(cc2Cl)[C@H]1O` [VANCOMYCIN], the Hepatotoxicity result with Hepatotoxicity [1] is “drug-induced liver injury reported”; in the data set on Hepatotoxicity [2], “no drug-induced liver injury reported”; in the data set with Hepatotoxicity [3], “drug-induced liver injury reported”.
For the compound `COc1cc2c(Nc3ccc(Br)cc3F)ncnc2cc1OCC1CCN(C)CC1` [VANDETANIB], the results for the Hepatotoxicity result in the data set with Hepatotoxicity [1], in the data set with Hepatotoxicity [2] and in the data set with Hepatotoxicity [3] were “drug-induced liver injury reported”, “no drug-induced liver injury reported” and “no drug-induced liver injury reported”, respectively.
Consider `COc1ccc(C(CN(C)C)C2(O)CCCCC2)cc1` (stereo not drawn) [VENLAFAXINE], for which the Hepatotoxicity entry is recorded as “drug-induced liver injury reported” with Hepatotoxicity [1], “no drug-induced liver injury reported” in the data set with Hepatotoxicity [2] and “no drug-induced liver injury reported” in the data set with Hepatotoxicity [3].
On to `COc1ccc(C(=O)N2CCN(c3ccc4c(c3)CCC(=O)N4)CC2)cc1OC` [VESNARINONE], for which the values for the Hepatotoxicity result in the data set on Hepatotoxicity [1], in the data set with Hepatotoxicity [2] and in the data set with Hepatotoxicity [3] were “drug-induced liver injury reported”, “no drug-induced liver injury reported” and “drug-induced liver injury reported”, respectively.
As to `Nc1ncnc2c1ncn2[C@@H]1O[C@H](CO)[C@@H](O)[C@@H]1O` [VIDARABINE], the Hepatotoxicity result in the data set with Hepatotoxicity [1] is reported as “drug-induced liver injury reported”; in the data set with Hepatotoxicity [2], “no drug-induced liver injury reported”; in the data set with Hepatotoxicity [3], “drug-induced liver injury reported”.
With `C=CC(N)CCC(=O)O` (stereo not drawn) [VIGABATRIN], the figures for the Hepatotoxicity entry with Hepatotoxicity [1], in the data set with Hepatotoxicity [2] and in the data set with Hepatotoxicity [3] were “no drug-induced liver injury reported”, “no drug-induced liver injury reported” and “drug-induced liver injury reported”, respectively.
Turning to `CC[C@]1(O)C[C@@H]2CN(CCc3c([nH]c4ccccc34)[C@@](C(=O)OC)(c3cc4c(cc3OC)N(C)[C@H]3[C@@](O)(C(=O)OC)[C@H](OC(C)=O)[C@]5(CC)C=CCN6CC[C@]43[C@@H]65)C2)C1` [VINBLASTINE], the results for the Hepatotoxicity entry in the data set on Hepatotoxicity [1], with Hepatotoxicity [2] and in the data set on Hepatotoxicity [3] were “drug-induced liver injury reported”, “no drug-induced liver injury reported” and “drug-induced liver injury reported”, respectively.
With `CC[C@]1(O)C[C@H]2CN(CCc3c([nH]c4ccccc34)[C@@](C(=O)OC)(c3cc4c(cc3OC)N(C=O)[C@H]3[C@@](O)(C(=O)OC)[C@H](OC(C)=O)[C@]5(CC)C=CCN6CC[C@]43[C@@H]65)C2)C1` [VINCRISTINE], the Hepatotoxicity entry in the data set with Hepatotoxicity [1], in the data set with Hepatotoxicity [2] and in the data set with Hepatotoxicity [3] was “drug-induced liver injury reported” throughout.
On to `CC[C@]12C=CCN3CC[C@@]4(c5cc([C@@]6(C(=O)OC)C[C@@H]7C[C@@H](C(C)(F)F)CN(Cc8c6[nH]c6ccccc86)C7)c(OC)cc5N(C)[C@H]4[C@@](O)(C(=O)OC)[C@@H]1OC(C)=O)[C@@H]32` [VINFLUNINE], for which the figures for the Hepatotoxicity entry in the data set on Hepatotoxicity [1], in the data set on Hepatotoxicity [2] and with Hepatotoxicity [3] were “no drug-induced liver injury reported”, “no drug-induced liver injury reported” and “drug-induced liver injury reported”, respectively.
On to `CCC1=C[C@@H]2CN(C1)Cc1c([nH]c3ccccc13)[C@@](C(=O)OC)(c1cc3c(cc1OC)N(C)[C@H]1[C@@](O)(C(=O)OC)[C@H](OC(C)=O)[C@]4(CC)C=CCN5CC[C@]31[C@@H]54)C2` [VINORELBINE], for which the values for the Hepatotoxicity result with Hepatotoxicity [1], in the data set on Hepatotoxicity [2] and in the data set with Hepatotoxicity [3] were “drug-induced liver injury reported”, “no drug-induced liver injury reported” and “drug-induced liver injury reported”, respectively.
For `OCC(CO)N[C@H]1C[C@](O)(CO)[C@@H](O)[C@H](O)[C@H]1O` [VOGLIBOSE], the Hepatotoxicity result in the data set on Hepatotoxicity [1] is “drug-induced liver injury reported”; with Hepatotoxicity [2], “no drug-induced liver injury reported”; in the data set with Hepatotoxicity [3], “drug-induced liver injury reported”.
Regarding `C[C@@H](c1ncncc1F)[C@](O)(Cn1cncn1)c1ccc(F)cc1F` [VORICONAZOLE], the values for the Hepatotoxicity result in the data set with Hepatotoxicity [1], in the data set with Hepatotoxicity [2] and with Hepatotoxicity [3] were “drug-induced liver injury reported”, “no drug-induced liver injury reported” and “no drug-induced liver injury reported”, respectively.
Consider `O=C(CCCCCCC(=O)Nc1ccccc1)NO` [VORINOSTAT], for which the Hepatotoxicity entry is “drug-induced liver injury reported” in the data set with Hepatotoxicity [1], “no drug-induced liver injury reported” with Hepatotoxicity [2] and “drug-induced liver injury reported” with Hepatotoxicity [3].
Consider `CC(=O)CC(c1ccccc1)c1c(O)c2ccccc2oc1=O` (stereo not drawn) [WARFARIN], for which the Hepatotoxicity entry in the data set with Hepatotoxicity [1] is on record as “drug-induced liver injury reported”; in the data set with Hepatotoxicity [2], “no drug-induced liver injury reported”; with Hepatotoxicity [3] it was “drug-induced liver injury reported”.
Turning to `CCOC(=O)CN[C@@H](C(=O)N1CC[C@H]1C(=O)NCc1ccc(/C(N)=N\O)cc1)C1CCCCC1` [XIMELAGATRAN], the values for the Hepatotoxicity result with Hepatotoxicity [1], with Hepatotoxicity [2] and in the data set on Hepatotoxicity [3] were “drug-induced liver injury reported”, “no drug-induced liver injury reported” and “no drug-induced liver injury reported”, respectively.
For the compound `Cc1cccc(C)c1NC(=O)c1cc(S(N)(=O)=O)c(Cl)cc1O` [XIPAMIDE], the Hepatotoxicity result is given as “no drug-induced liver injury reported” in the data set with Hepatotoxicity [1], “no drug-induced liver injury reported” in the data set with Hepatotoxicity [2] and “drug-induced liver injury reported” in the data set with Hepatotoxicity [3].
Take `COC(=O)[C@@H]1[C@H]2C[C@H]3c4[nH]c5ccccc5c4CCN3C[C@@H]2CC[C@@H]1O` [YOHIMBINE]: the Hepatotoxicity result in the data set on Hepatotoxicity [1] is “no drug-induced liver injury reported”; with Hepatotoxicity [2] it was “no drug-induced liver injury reported”; with Hepatotoxicity [3] it was “drug-induced liver injury reported”.
As to `COc1cc(C(=O)NS(=O)(=O)c2ccccc2C)ccc1Cc1cn(C)c2ccc(NC(=O)OC3CCCC3)cc12` [ZAFIRLUKAST], the Hepatotoxicity entry with Hepatotoxicity [1] was “drug-induced liver injury reported”; in the data set on Hepatotoxicity [2], “no drug-induced liver injury reported”; with Hepatotoxicity [3], “no drug-induced liver injury reported”.
In the case of `Nc1ccn([C@H]2CC[C@@H](CO)O2)c(=O)n1` [ZALCITABINE], the results for the Hepatotoxicity result with Hepatotoxicity [1] (Liver), in the data set on Hepatotoxicity [2] (Liver) and with Hepatotoxicity [3] (Liver) were “drug-induced liver injury reported”, “no drug-induced liver injury reported” and “drug-induced liver injury reported”, respectively.
Regarding `Cc1cn([C@H]2C[C@H](N=[N+]=[N-])[C@@H](CO)O2)c(=O)[nH]c1=O` [ZIDOVUDINE], the results for the Hepatotoxicity result in the data set on Hepatotoxicity [1], with Hepatotoxicity [2] and in the data set with Hepatotoxicity [3] were “drug-induced liver injury reported”, “no drug-induced liver injury reported” and “drug-induced liver injury reported”, respectively.
As to `CC(c1cc2ccccc2s1)N(O)C(N)=O` (stereo not drawn) [ZILEUTON], the Hepatotoxicity result in the data set on Hepatotoxicity [1] was “drug-induced liver injury reported”; in the data set on Hepatotoxicity [2], “no drug-induced liver injury reported”; with Hepatotoxicity [3], “drug-induced liver injury reported”.

(Values after ChEMBL document CHEMBL1697731, “Cheminformatics analysis of assertions mined from literature that describe drug-induced liver injury in different species” (Chem Res Toxicol, 2010).)
